The record followed here is article PMC5025651, “Reprofiled anthelmintics abate hypervirulent stationary-phase Clostridium difficile” (Scientific Reports, 2016).

In experiment [1] the test system is C. difficile strain 630 (CD630, ATCC BAA-1382-FZ, ribotype 012). Description: MIC by broth microdilution. The note with it: for MIC: Clostridioides difficile, ATCCBAA1382, BHIS broth, anaerobic, 20–24 h, n = 2; for in vitro activity against CD630 (in words): growth inhibition, MIC assay. The experiment is classed as cell-based, Clostridium difficile. A general note: In broth dilution the organism is exposed to a series of concentrations in liquid medium.

The test system of experiment [2] is C. difficile strain 4118 (CD4118, ATCC BAA-1870, ribotype 027). Description: MIC by broth microdilution. In kind it is cell-based, Clostridium difficile. The note with it: for MIC: Clostridioides difficile, ATCCBAA1870, BHIS broth, anaerobic, 20–24 h, n = 2, read-out: MIC C. difficile 4118; for in vitro activity against CD4118 (in words): growth inhibition, MIC assay.

The test system of experiment [3] is B. breve Strain EX336960VC19. As to the kind of experiment: MIC by broth microdilution. The experiment is classed as cell-based. To be noted: Bifidobacterium breve; B. breve EX336960VC19; LSM broth, anaerobic; duplicate; read-out: MIC.
For experiment [4], the system named is B. longum subsp. longum Strain 44B. Description: MIC by broth microdilution. In kind it is cell-based. To be noted: Bifidobacterium longum; B. longum subsp. longum 44B; LSM broth, anaerobic; duplicate; read-out: MIC.
Experiment [5] has as its system C. clostridioforme ATCC 25537. Description: MIC by broth microdilution. In kind it is cell-based, Clostridium clostridioforme. To be noted: Clostridium, ATCC25537; C. clostridioforme ATCC 25537; BHIS, anaerobic; duplicate; read-out: MIC.
The next experiment concerns C. sporogenes ATCC 15579. As to the kind of experiment: MIC by broth microdilution. In kind it is cell-based. The note with it: Clostridium sporogenes, ATCC15579, BHIS, anaerobic, duplicate.
In experiment [6] the test system is L. johnsonii Strain 135-1-CHN. As to the kind of experiment: MIC by broth microdilution. To be noted: Lactobacillus johnsonii, STRAIN1351CHN; L. johnsonii 135-1-CHN; CAMHB with 5% laked horse blood, ~48 h; duplicate; read-out: MIC. The experiment is classed as cell-based.
The subject of the next experiment is L. plantarum ATCC 8014. Description: MIC by broth microdilution. The experiment is classed as cell-based. To be noted: Lactiplantibacillus plantarum, ATCC8014; L. plantarum ATCC 8014; CAMHB with 5% laked horse blood, ~48 h; duplicate; read-out: MIC.
The subject of experiment [7] is L. reuteri Strain CF48-3A. As to the kind of experiment: MIC by broth microdilution. In kind it is cell-based, Lactobacillus reuteri. The note with it: Limosilactobacillus reuteri; L. reuteri CF48-3A; CAMHB with 5% laked horse blood, ~48 h; duplicate; read-out: MIC.
Experiment [8] has as its system B. fragilis Strain CL05T00C42. Description: MIC by broth microdilution. The experiment is classed as cell-based. The note with it: Bacteroides fragilis; B. fragilis CL05T00C42; supplemented Brucella broth, anaerobic; duplicate; read-out: MIC.
In experiment [9] the test system is B. thetaiotaomicron ATCC 29148. As to the kind of experiment: microbe, parasite or virus in culture. In kind it is cell-based. The note with it: Bacteroides thetaiotaomicron, ATCC29148; B. thetaiotaomicron ATCC 29148; supplemented Brucella broth, anaerobic; duplicate; read-out: MIC.
The test system of the next experiment is P. distasonis ATCC 8503. Description: MIC by broth microdilution. The experiment is classed as cell-based. The note with it: Parabacteroides distasonis, ATCC8503; P. distasonis ATCC 8503; supplemented Brucella broth, anaerobic; duplicate; read-out: MIC.
In a further experiment the test system is P. nigrescens ATCC 33563. Description: MIC by broth microdilution. The experiment is classed as cell-based. The note with it: Prevotella nigrescens, ATCC33563; P. nigrescens ATCC 33563; supplemented Brucella broth, anaerobic; duplicate; read-out: MIC.
The subject of another experiment is B. subtilis ATCC 6051. As to the kind of experiment: MIC by broth microdilution. In kind it is cell-based. To be noted: Bacillus subtilis, ATCC6051; B. subtilis ATCC 6051; CAMHB, aerobic; duplicate; read-out: MIC.
Another experiment relates to S. aureus RN4220. As to the kind of experiment: MIC by broth microdilution. In kind it is cell-based. The note with it: Staphylococcus aureus, CAMHB, aerobic, duplicate.
The next experiment deals with S. epidermidis 1457. Description: MIC by broth microdilution. The experiment is classed as cell-based. The note with it: Staphylococcus epidermidis; S. epidermidis 1457; CAMHB, aerobic; duplicate; read-out: MIC.
The subject of a further experiment is A. baumannii M2. Description: MIC by broth microdilution. The experiment is classed as cell-based. The note with it: Acinetobacter baumannii; A. baumannii M2; CAMHB, aerobic; duplicate; read-out: MIC.
The next experiment deals with P. aeruginosa PAO1. Description: MIC by broth microdilution. In kind it is cell-based. To be noted: Pseudomonas aeruginosa; P. aeruginosa PAO1; CAMHB, aerobic; duplicate; read-out: MIC.

SMILES strings stand for the structures. Values after ≈ are worked out from the molar mass of the structure shown.

Turning to `COc1c(I)cc(I)cc1C(=O)Nc1ccc(Oc2ccccc2)cc1` [Compound 5b], in [1], the MIC was more than 32 µg/mL and the “in vitro activity against CD630 (in words)” value was “inactive”. Besides, in experiment [2], the MIC is more than 32 µg/mL and the “in vitro activity against CD4118 (in words)” value is “inactive”.

`O=C(Nc1ccccc1Cl)c1cc(I)cc(I)c1O` [Compound 7c]: the MIC in experiment [1] and in experiment [2] was 8 µg/mL (≈ 16 µM) each time.

In the case of `COc1c(I)cc(I)cc1C(=O)Nc1ccc2ccccc2c1` [Compound 6b], in experiment [1], the MIC is more than 32 µg/mL and the “in vitro activity against CD630 (in words)” value is “inactive”. For the same compound, in experiment [2], the MIC is more than 32 µg/mL and the “in vitro activity against CD4118 (in words)” value was “inactive”.

For the compound `O=C(Nc1ccc(Oc2ccc(Cl)cc2)cc1)c1cc(I)cc(I)c1O` [Compound 5g], in experiment [1], the MIC is 0.13 µg/mL (≈ 0.22 µM) and the “in vitro activity against CD630 (in words)” value is on record as “exhibited in vitro activity”. Also, in experiment [2], the MIC stood at 0.25 µg/mL (≈ 0.423 µM) and the “in vitro activity against CD4118 (in words)” value was “exhibited in vitro activity”.

As for `O=C(NCCc1ccccc1Cl)c1cc(I)cc(I)c1O` [Compound 7f], the MIC in experiment [1] and in [2] was 2 µg/mL (≈ 3.79 µM) each time.

Take `O=C(NCCc1ccc(Cl)cc1)c1cc(I)cc(I)c1O` [Compound 7h]: the MIC came out at 0.25 µg/mL (≈ 0.474 µM) in [1] and 0.5 µg/mL (≈ 0.948 µM) in experiment [2].

As for `O=C(NCCc1cccc(Cl)c1)c1cc(I)cc(I)c1O` [Compound 7g], the MIC in experiment [1] and in experiment [2] was 1 µg/mL (≈ 1.9 µM) each time.

As to `O=C(Nc1ccc(Oc2ccc(F)cc2)cc1)c1cc(I)cc(I)c1O` [Compound 5e], in [1], the MIC worked out at 0.13 µg/mL (≈ 0.226 µM) and the “in vitro activity against CD630 (in words)” value was “exhibited in vitro activity”. In experiment [2], the MIC amounted to 0.13 µg/mL (≈ 0.226 µM) and the “in vitro activity against CD4118 (in words)” value is “exhibited in vitro activity”.

Turning to `O=C(Nc1ccc2ccccc2c1)c1cc(I)cc(I)c1O` [Compound 6a], the MIC was determined as 0.5 µg/mL (≈ 0.971 µM) in experiment [1]; 0.5 µg/mL (≈ 0.971 µM) in experiment [2]; 32 µg/mL (≈ 62.1 µM) in experiment [3]; 32 µg/mL (≈ 62.1 µM) in [4]; 4 µg/mL (≈ 7.77 µM) in [5]; 8 µg/mL (≈ 15.5 µM) in the experiment with C. sporogenes ATCC 15579. Moreover, the MIC in experiment [6] was 32 µg/mL (≈ 62.1 µM); in the experiment on L. plantarum ATCC 8014, more than 32 µg/mL; in [7], 32 µg/mL (≈ 62.1 µM); in [8] it was 32 µg/mL (≈ 62.1 µM); in experiment [9], more than 32 µg/mL; with P. distasonis ATCC 8503, 16 µg/mL (≈ 31.1 µM). Further, the MIC was 8 µg/mL (≈ 15.5 µM) in the experiment on P. nigrescens ATCC 33563; 0.06 µg/mL (≈ 0.116 µM) in the experiment with B. subtilis ATCC 6051; 0.25 µg/mL (≈ 0.485 µM) in the experiment with S. aureus RN4220; 0.06 µg/mL (≈ 0.116 µM) in the experiment on S. epidermidis 1457; more than 32 µg/mL in the experiment with A. baumannii M2; more than 32 µg/mL in the experiment with P. aeruginosa PAO1. For the same compound, the “in vitro activity against CD630 (in words)” value in [1] is recorded as “exhibited in vitro activity”. The “in vitro activity against CD4118 (in words)” value in [2] is “exhibited in vitro activity”.

Regarding `O=C(Nc1ccc(Oc2ccccc2)cc1)c1cc(I)cc(I)c1O` [Compound 5a], in experiment [1], the MIC was determined as 0.5 µg/mL (≈ 0.897 µM) and the “in vitro activity against CD630 (in words)” value was “exhibited in vitro activity”. For the same compound, in experiment [2], the MIC worked out at 1 µg/mL (≈ 1.79 µM) and the “in vitro activity against CD4118 (in words)” value is listed as “exhibited in vitro activity”.

`O=C(Nc1ccc2ccccc2c1)c1cc(I)cc(I)c1` [Compound 6c]: in experiment [1], the MIC was more than 32 µg/mL and the “in vitro activity against CD630 (in words)” value is “inactive”. For the same compound, in experiment [2], the MIC is more than 32 µg/mL and the “in vitro activity against CD4118 (in words)” value is “inactive”.

`COc1c(I)cc(I)cc1C(=O)Nc1ccc(Oc2ccc(Cl)cc2)cc1` [Compound 5h]: in experiment [1], the MIC was more than 32 µg/mL and the “in vitro activity against CD630 (in words)” value was “inactive”. Moreover, in experiment [2], the MIC was more than 32 µg/mL and the “in vitro activity against CD4118 (in words)” value is “inactive”.

For `O=C(NCCc1ccc(Cl)cc1Cl)c1cc(I)cc(I)c1O` [Compound 7i], the figures for the MIC in experiment [1] and in experiment [2] were 0.25 µg/mL (≈ 0.445 µM) and 0.5 µg/mL (≈ 0.89 µM), respectively.

As to `Cc1ccc(Oc2ccc(NC(=O)c3cc(I)cc(I)c3O)cc2)cc1` [Compound 5f], in [1], the MIC is 0.13 µg/mL (≈ 0.228 µM) and the “in vitro activity against CD630 (in words)” value is listed as “exhibited in vitro activity”. Moreover, in [2], the MIC is 0.25 µg/mL (≈ 0.438 µM) and the “in vitro activity against CD4118 (in words)” value is given as “exhibited in vitro activity”.

With `O=C(Nc1ccc(Cl)cc1)c1cc(I)cc(I)c1O` [Compound 7b], the MIC in [1] came to 0.25 µg/mL (≈ 0.501 µM); in experiment [2], 0.5 µg/mL (≈ 1 µM); in experiment [3] it was 8 µg/mL (≈ 16 µM); in experiment [4], 8 µg/mL (≈ 16 µM); in experiment [5], 16 µg/mL (≈ 32 µM); against C. sporogenes ATCC 15579 it was 16 µg/mL (≈ 32 µM). Besides, the MIC in experiment [6] was 32 µg/mL (≈ 64.1 µM); with L. plantarum ATCC 8014, 32 µg/mL (≈ 64.1 µM); in experiment [7] it was 32 µg/mL (≈ 64.1 µM); in experiment [8], 32 µg/mL (≈ 64.1 µM); in experiment [9], more than 32 µg/mL; in the experiment on P. distasonis ATCC 8503, 8 µg/mL (≈ 16 µM). For the same compound, the MIC with P. nigrescens ATCC 33563 was 4 µg/mL (≈ 8.01 µM); with B. subtilis ATCC 6051 it was 0.06 µg/mL (≈ 0.12 µM); in the experiment with S. aureus RN4220, 0.06 µg/mL (≈ 0.12 µM); in the experiment with S. epidermidis 1457 it was not above 0.03 µg/mL; in the experiment with A. baumannii M2 it was 32 µg/mL (≈ 64.1 µM); in the experiment with P. aeruginosa PAO1, more than 32 µg/mL.

For `O=C(Nc1ccc(-c2ccccc2)cc1)c1cc(I)cc(I)c1O` [Compound 7a], the MIC was 0.5 µg/mL (≈ 0.924 µM) in experiment [1] and 1 µg/mL (≈ 1.85 µM) in [2].

For `O=C(Nc1ccc(I)cc1)c1cc(I)cc(I)c1O` [Compound 7d], the figures for the MIC in experiment [1] and in experiment [2] were 0.13 µg/mL (≈ 0.22 µM) and 0.25 µg/mL (≈ 0.423 µM), respectively.

Consider `O=C(Nc1ccc(Oc2ccccc2)cc1)c1cc(I)cc(I)c1` [Compound 5c], for which, in [1], the MIC was more than 32 µg/mL and the “in vitro activity against CD630 (in words)” value was “inactive”. For the same compound, in experiment [2], the MIC is more than 32 µg/mL and the “in vitro activity against CD4118 (in words)” value was “inactive”.

Consider `O=C(Nc1ccc2c(c1)Cc1ccccc1-2)c1cc(I)cc(I)c1O` [Compound 7e, N-(9H-Fluoren-2-yl)-2-hydroxy-3,5-diiodobenzamide], for which the MIC in [1] was determined as 0.25 µg/mL (≈ 0.452 µM); in experiment [2], 0.5 µg/mL (≈ 0.904 µM).

On to `CN(C(=O)c1cc(I)cc(I)c1O)c1ccc(Oc2ccccc2)cc1` [Compound 5d], for which, in experiment [1], the MIC was more than 32 µg/mL and the “in vitro activity against CD630 (in words)” value is “inactive”. Further, in experiment [2], the MIC was more than 32 µg/mL and the “in vitro activity against CD4118 (in words)” value is “inactive”.
